HELM strings list units from the 5' end as sugar, base in round brackets, then linkage (d deoxyribose, r ribose, m 2'-O-methyl, p phosphodiester). Strings are as the collection lists them; they lack the last nucleoside at the 3' end of the tested compound. [moe] = 2'-O-(2-methoxyethyl) (MOE); [sp] = phosphorothioate linkage; [m5C] = 5-methylcytosine

The data set deals with PRNP. In words: mouse, dose not given. The note with it: ASO.
In turn, “RNA1{[moe](G)[sp].[moe](G)p.[moe](T)p.[moe](T)p.[moe](T)[sp].d(T)[sp].d(T)[sp].d(G)[sp].d(A)[sp].d([m5C])[sp].d(A)[sp].d(A)[sp].d(T)[sp].d(T)[sp].d(A)[sp].[moe](T)p.[moe](G)p.[moe](A)[sp].[moe](G)}$$$$ (last 3' nucleoside missing)” yielded a 3 h FOB score of 5 score 0-7.
Substance “RNA1{[moe](G)[sp].[moe](G)p.[moe](T)p.[moe](T)p.[moe](T)[sp].d(T)[sp].d(T)[sp].d(G)[sp].d(G)[sp].d([m5C])[sp].d(T)[sp].d(T)[sp].d(A)[sp].d([m5C])[sp].d(T)[sp].[moe]([m5C])p.[moe](G)p.[moe](G)[sp].[moe]([m5C])}$$$$ (last 3' nucleoside missing)” returned a 3 h FOB score of 4 score 0-7.
“RNA1{[moe](G)[sp].[moe](G)p.[moe](T)p.[moe](T)p.[moe]([m5C])[sp].d(A)[sp].d(G)[sp].d(T)[sp].d(G)[sp].d(T)[sp].d(T)[sp].d(G)[sp].d(T)[sp].d(G)[sp].d(A)[sp].[moe]([m5C])p.[moe](A)p.[moe](A)[sp].[moe](T)}$$$$ (last 3' nucleoside missing)”: the 3 h FOB score came out at 7 score 0-7.
Substance “RNA1{[moe](G)[sp].[moe](G)p.[moe]([m5C])p.[moe](A)p.[moe](A)[sp].d(A)[sp].d(G)[sp].d(G)[sp].d(T)[sp].d(A)[sp].d(T)[sp].d(T)[sp].d(T)[sp].d([m5C])[sp].d(A)[sp].[moe](G)p.[moe](A)p.[moe]([m5C])[sp].[moe](T)}$$$$ (last 3' nucleoside missing)” displayed a 3 h FOB score of 6.5 score 0-7.
“RNA1{[moe](G)[sp].[moe](G)p.[moe]([m5C])p.[moe](A)p.[moe]([m5C])[sp].d(T)[sp].d(T)[sp].d(T)[sp].d([m5C])[sp].d(T)[sp].d(T)[sp].d(T)[sp].d(T)[sp].d(T)[sp].d(A)[sp].[moe](T)p.[moe](T)p.[moe](T)[sp].[moe]([m5C])}$$$$ (last 3' nucleoside missing)” gave a 3 h FOB score of 1 score 0-7.
The same measure for “RNA1{[moe](G)[sp].[moe](G)p.[moe]([m5C])p.[moe](T)p.[moe](T)[sp].d(A)[sp].d([m5C])[sp].d(T)[sp].d([m5C])[sp].d(G)[sp].d(G)[sp].d([m5C])[sp].d(T)[sp].d(T)[sp].d(G)[sp].[moe](T)p.[moe](T)p.[moe]([m5C])[sp].[moe]([m5C])}$$$$ (last 3' nucleoside missing)”: 3.75 score 0-7; for “RNA1{[moe](G)[sp].[moe](T)[sp].[moe]([m5C])p.[moe](A)p.[moe](G)p.[moe](T)p.[moe](T)p.d(T)[sp].d(T)[sp].d(T)[sp].d([m5C])[sp].d([m5C])[sp].d([m5C])[sp].d([m5C])[sp].d(A)[sp].d([m5C])[sp].d(A)[sp].[moe](T)p.[moe](A)}$$$$ (last 3' nucleoside missing)”: 0 score 0-7; for “RNA1{[moe](G)[sp].[moe](T)p.[moe](A)p.[moe](T)p.[moe](A)[sp].d(A)[sp].d(T)[sp].d(T)[sp].d(T)[sp].d(T)[sp].d(T)[sp].d(T)[sp].d(T)[sp].d(A)[sp].d([m5C])[sp].[moe]([m5C])p.[moe](T)p.[moe](G)[sp].[moe](G)}$$$$ (last 3' nucleoside missing)”: 0 score 0-7.
As to “RNA1{[moe](G)[sp].[moe](T)p.[moe](A)p.[moe](T)p.[moe](G)[sp].d(T)[sp].d([m5C])[sp].d(A)[sp].d(A)[sp].d(A)[sp].d(A)[sp].d(T)[sp].d([m5C])[sp].d(A)[sp].d(T)[sp].[moe](T)p.[moe]([m5C])p.[moe](T)[sp].[moe](G)}$$$$ (last 3' nucleoside missing)”, the 3 h FOB score was determined as 6 score 0-7.
For the substance “RNA1{[moe](G)[sp].[moe](T)p.[moe](A)p.[moe](T)p.[moe]([m5C])[sp].d(A)[sp].d(T)[sp].d(G)[sp].d(T)[sp].d(G)[sp].d(G)[sp].d([m5C])[sp].d([m5C])[sp].d(T)[sp].d([m5C])[sp].[moe]([m5C])p.[moe](T)p.[moe](A)[sp].[moe](A)}$$$$ (last 3' nucleoside missing)”, the 3 h FOB score was determined as 5.5 score 0-7.
Consider “RNA1{[moe](G)[sp].[moe](T)p.[moe](G)p.[moe](A)p.[moe](A)[sp].d(T)[sp].d(A)[sp].d(T)[sp].d(G)[sp].d(T)[sp].d([m5C])[sp].d([m5C])[sp].d(T)[sp].d([m5C])[sp].d(T)[sp].[moe](A)p.[moe](G)p.[moe]([m5C])[sp].[moe]([m5C])}$$$$ (last 3' nucleoside missing)”, for which the 3 h FOB score worked out at 2.5 score 0-7.
In the case of “RNA1{[moe](G)[sp].[moe](T)p.[moe](G)p.[moe](A)p.[moe]([m5C])[sp].d(A)[sp].d(A)[sp].d(T)[sp].d(A)[sp].d(T)[sp].d(T)[sp].d(T)[sp].d(A)[sp].d([m5C])[sp].d(T)[sp].[moe]([m5C])p.[moe](T)p.[moe](T)[sp].[moe](G)}$$$$ (last 3' nucleoside missing)”, the 3 h FOB score is 1 score 0-7.
The substance “RNA1{[moe](G)[sp].[moe](T)p.[moe](G)p.[moe](G)p.[moe](A)[sp].d(A)[sp].d(G)[sp].d(A)[sp].d([m5C])[sp].d(T)[sp].d(T)[sp].d(G)[sp].d(T)[sp].d(G)[sp].d(T)[sp].[moe](T)p.[moe](A)p.[moe](G)[sp].[moe](A)}$$$$ (last 3' nucleoside missing)” displayed a 3 h FOB score of 5.25 score 0-7.
Turning to “RNA1{[moe](G)[sp].[moe](T)p.[moe](G)p.[moe](T)p.[moe](T)[sp].d(G)[sp].d(T)[sp].d(G)[sp].d(A)[sp].d([m5C])[sp].d(A)[sp].d(A)[sp].d(T)[sp].d(A)[sp].d(T)[sp].[moe](T)p.[moe](T)p.[moe](A)[sp].[moe]([m5C])}$$$$ (last 3' nucleoside missing)”, the 3 h FOB score came out at 1 score 0-7.
“RNA1{[moe](G)[sp].[moe](T)p.[moe](G)p.[moe](T)p.[moe](T)[sp].d([m5C])[sp].d([m5C])[sp].d(A)[sp].d(T)[sp].d([m5C])[sp].d([m5C])[sp].d(T)[sp].d([m5C])[sp].d([m5C])[sp].d(A)[sp].[moe](G)p.[moe](G)p.[moe]([m5C])[sp].[moe](T)}$$$$ (last 3' nucleoside missing)” registered a 3 h FOB score of 1 score 0-7.
In turn, “RNA1{[moe](G)[sp].[moe](T)p.[moe](G)p.[moe](T)p.[moe]([m5C])[sp].d(A)[sp].d(T)[sp].d(A)[sp].d(A)[sp].d(T)[sp].d(T)[sp].d(T)[sp].d(T)[sp].d([m5C])[sp].d(T)[sp].[moe](T)p.[moe](A)p.[moe](G)[sp].[moe]([m5C])}$$$$ (last 3' nucleoside missing)” returned a 3 h FOB score of 0.5 score 0-7.
“RNA1{[moe](G)[sp].[moe](T)p.[moe](G)p.[moe](T)p.[moe]([m5C])p.[moe](A)p.d(T)[sp].d(A)[sp].d(A)[sp].d(T)[sp].d(T)[sp].d(T)[sp].d(T)[sp].d([m5C])[sp].d(T)[sp].d(T)[sp].[moe](A)p.[moe](G)[sp].[moe]([m5C])}$$$$ (last 3' nucleoside missing)” came in with a 3 h FOB score of 0 score 0-7.
As for “RNA1{[moe](G)[sp].[moe](T)p.[moe](G)p.[moe](T)p.[moe]([m5C])p.d(A)[sp].d(T)[sp].d(A)[sp].d(A)[sp].d(T)[sp].d(T)[sp].d(T)[sp].d(T)[sp].d([m5C])[sp].[moe](T)[sp].[moe](T)p.[moe](A)p.[moe](G)}$$$$ (last 3' nucleoside missing)”, the 3 h FOB score was determined as 0 score 0-7.
